Like-named read-outs stand apart in the source and are kept apart here.
Biological target: T1, KIAA1363 (Mus musculus, UniProt Q8BLF1)
T1 construct: ABPP analysis of KIAA1363 activity in mouse brain membrane proteome; from tissue; host or cells: mouse brain (membrane fraction)
T1 sequence (Q8BLF1 1-408): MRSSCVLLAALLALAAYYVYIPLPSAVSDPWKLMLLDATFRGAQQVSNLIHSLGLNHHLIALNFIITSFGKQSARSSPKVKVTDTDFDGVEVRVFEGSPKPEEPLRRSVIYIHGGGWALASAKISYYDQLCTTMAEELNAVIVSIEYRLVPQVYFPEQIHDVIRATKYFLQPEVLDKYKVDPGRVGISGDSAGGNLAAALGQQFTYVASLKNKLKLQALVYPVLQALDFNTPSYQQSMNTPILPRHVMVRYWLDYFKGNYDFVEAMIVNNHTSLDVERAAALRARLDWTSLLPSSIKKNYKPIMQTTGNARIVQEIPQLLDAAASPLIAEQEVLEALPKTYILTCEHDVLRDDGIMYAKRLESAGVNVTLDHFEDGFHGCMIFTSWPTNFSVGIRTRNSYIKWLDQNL
Experiment: Gel-based competitive ABPP of KIAA1363 in mouse brain membrane proteome (FP-rhodamine)
Format: biochemical
Description: In various embodiments, the invention provides a method of inhibiting a serine hydrolase, comprising contacting the hydrolase with a compound of formula (I), e.g., a compound selected from set of compounds shown in Table 1, below. […] IC50 values were derived from ABPP analysis of KIAA1363 activity in mouse brain membrane proteome and are averages of three replicates. Inhibitors were added to the proteome for 30 min before addition of FP-rhodamine (1 μM, 30 min).
Tissues were Dounce-homogenized in PBS, pH 7.4, followed by a low-speed spin (1,400 g, 5 min) to remove debris. The supernatant was then subjected to centrifugation (100,000×g, 45 min) to provide the cytosolic fraction in the supernatant and the unsoluble fraction as a pellet. The pellet was washed and resuspended in PBS buffer by sonication. Total protein concentration in each fraction was determined using a protein assay kit (Bio-Rad). Samples were stored at −80° C. until use.
For ABPP experiments, cell lysate and tissue proteomes were treated with 1 μM FP-rhodamine for 30 min at room temperature (50 μL total reaction volume) as described previously (Nomura et al., 2010). Reactions were quenched with one volume of standard 4×SDS/PAGE loading buffer (reducing), separated by SDS/PAGE (10% acrylamide), and visualized in-gel with a Hitachi FMBio IIe flatbed fluorescence scanner (MiraiBio). Inhibitors were preincubated prior (30 min or 4 h at 37° C. in vitro or in situ, respectively) to the addition of FP-rhodamine.

[1] = mouse brain membrane proteome, inhibitor 30 min before FP-rhodamine (1 μM, 30 min), averages of three replicates, read-out: IC50 (KIAA1363)
[2] = screened against KIAA1363, Table 1, read-out: IC50 values of less than 1 micromolar

Compound | IC50 [1] [nM] | IC50 [2] [nM] | IC50 (screened against KIAA1363, Table 1, read-out: IC50 values of around 10 nanomolar (most potent)) [nM]
O=C(NCC(c1ccccc1)c1ccccc1)Oc1ccc(-n2cccc2)cc1 [JW434, 4-(1H-pyrrol-1-yl)phenyl (2,2-diphenylethyl)carbamate] | > 50000 | – | –
O=C(NCCc1ccc2ccccc2c1)Oc1ccc(-n2cccc2)cc1 [JW435, 4-(1H-pyrrol-1-yl)phenyl (2-(naphthalen-2-yl)ethyl)carbamate] | > 50000 | – | –
COc1ccc(CCNC(=O)Oc2c(C)ccc3ccccc23)cc1 [JW436, 2-methylnaphthalen-1-yl 4-methoxyphenethylcarbamate] | 3000 | – | –
COc1cccc(CCNC(=O)Oc2c(C)ccc3ccccc23)c1 [JW437, 2-methylnaphthalen-1-yl 3-methoxyphenethylcarbamate] | 209 | < 1000 | –
Cc1ccc2ccccc2c1OC(=O)NCCC(c1ccccc1)c1ccccc1 [JW438, 2-methylnaphthalen-1-yl (3,3-diphenylpropyl)carbamate] | > 50000 | – | –
Cc1ccc2ccccc2c1OC(=O)NCC(c1ccccc1)c1ccccc1 [JW439, 2-methylnaphthalen-1-yl (2,2-diphenylethyl)carbamate] | > 50000 | – | –
CCOc1ccccc1OC(=O)NCCc1ccc(OC)cc1 [JW441, 2-ethoxyphenyl 4-methoxyphenethylcarbamate] | > 10000 | – | –
CCOc1ccccc1OC(=O)NCCc1cccc(OC)c1 [JW442, 2-ethoxyphenyl 3-methoxyphenethylcarbamate] | 1010 | – | –
CCOc1ccccc1OC(=O)NCCC(c1ccccc1)c1ccccc1 [JW443, 2-ethoxyphenyl (3,3-diphenylpropyl)carbamate] | 1830 | – | –
CCOc1ccccc1OC(=O)NCC(c1ccccc1)c1ccccc1 [JW444, 2-ethoxyphenyl (2,2-diphenylethyl)carbamate] | 1050 | – | –
O=C(NCCc1ccc(C(F)(F)F)cc1)Oc1ccc(-n2cccc2)cc1 [JW446, 4-(1H-pyrrol-1-yl)phenyl 4-(trifluoromethyl)phenethylcarbamate] | > 50000 | – | –
Cc1ccc2ccccc2c1OC(=O)NCCc1ccc(C(F)(F)F)cc1 [JW447, 2-methylnaphthalen-1-yl 4-(trifluoromethyl)phenethylcarbamate] | 858 | – | –
CCOc1ccccc1OC(=O)NCCc1ccc(C(F)(F)F)cc1 [JW448, 2-ethoxyphenyl 4-(trifluoromethyl)phenethylcarbamate] | 293 | < 1000 | –
COc1ccc(OC(=O)NCCc2ccc(F)cc2)c2ccccc12 [JW465, 4-methoxynaphthalen-1-yl 4-fluorophenethylcarbamate] | > 50000 | – | –
Cc1ccc(C(C)C)c(OC(=O)NCCc2ccc(F)cc2)c1 [JW466, 2-isopropyl-5-methylphenyl 4-fluorophenethylcarbamate] | 197 | < 1000 | –
C=CCc1ccccc1OC(=O)NCCc1ccc(F)cc1 [JW468, 2-allylphenyl 4-fluorophenethylcarbamate] | 94.3 | – | –
CN(C)c1cccc(OC(=O)NCCc2ccc(F)cc2)c1 [JW469, 3-(dimethylamino)phenyl 4-fluorophenethylcarbamate] | 5160 | – | –
O=C(NCCc1ccc(F)cc1)Oc1ccc(C2CCCCC2)cc1 [JW472, 4-cyclohexylphenyl 4-fluorophenethylcarbamate] | 119 | < 1000 | –
O=C(NCCc1ccc(F)cc1)Oc1ccc(-c2ccccc2)cc1 [JW473, [1,1′-biphenyl]-4-yl 4-fluorophenethylcarbamate] | 955 | < 1000 | –
O=C(NCCc1ccc(F)cc1)Oc1ccc(C2CCCC2)cc1 [JW474, 4-cyclopentylphenyl 4-fluorophenethylcarbamate] | 795 | – | –
COc1cccc(OC(=O)NCCc2ccc(F)cc2)c1OC [JW477, 2,3-dimethoxyphenyl 4-fluorophenethylcarbamate] | > 10000 | – | –
CC(C)c1ccccc1OC(=O)NCCc1ccc2c(c1)OCO2 [JW481, 2-isopropylphenyl (2-(benzo[d][1,3]dioxol-5-yl)ethyl)carbamate] | 11.3 | – | ~10
